Laboratory results from US20220202705A1, “THERMORESPONSIVE HYDROGEL CONTAINING POLYMER MICROPARTICLES FOR NONINVASIVE OCULAR BIOLOGIC DELIVERY” (University of Pittsburgh - Of the Commonwealth System of …, priority 2016, published 2022).

Columns and labels:
[1] = 2 drops per day of 0.2% BT, 1-7% absorption, 0.66 mg brimonidine per mg BT
Method: Theoretical maximum and minimum amounts of BT absorption were also calculated as a basis for comparison for in vitro release from the BTMPs. This range was calculated by assuming a 50 μl drop and 2 drops administered per day at a rate of either 1% (minimum) or 7% (maximum) absorption (Ghate and Edelhauser, 2008). As the in vitro release methods measure base brimonidine and not the tartrate salt, a necessary conversion factor of 0.66 mg brimonidine for every 1 mg BT was incorporated in these calculations (Acheampong et al., 2002).

[2] = in vivo; cited from earlier work
[3] = tested on: New Zealand White rabbits; experiment: Post-mortem T1-weighted MRI 24 h after intravitreal injection of Gd-DOTA in thermoresponsive gel; assay type: in vivo, rabbit; settings: in hydrogel
Method: Scans were performed within one hour of sacrifice. Soluble Gd-DOTA without MP encapsulation was largely cleared from the injection site at 24 h, with only 56% and 59% signal intensity (relative to nearby muscle tissue) in the vitreous and anterior chamber, respectively. […] The spatiotemporal distribution of Gd-DOTA into the rest of the eye will also provide valuable data for future controlled release formulations of other ocular therapeutics, such as those targeting the posterior segment of the eye.

[4] = Loading and release of other drugs from microparticles embedded in the gel; assay type: physicochemical
Description: The loading and release of other drugs (moxiflxacin and vancomycin) with the microparticles embedded within the gel has also been confirmed.

[5] = In vitro NGF release from PLGA microspheres; assay type: physicochemical; settings: FIG. 15
Method: 1. Prepare aqueous solution of NGF in DI water at 100 ug/ml concentration
2. Add 200 ul of this NGF solution to 4 ml dichloromethane/PLGA solution (using 200 mg of desired PLGA—for microspheres in FIG. 1 this was acid terminated 50:50 lactic:glycolic MW=7-17,000 Da viscosity=0.16-0.24 dl/g)
3. Sonicate for 10 s at 25% amplitude
4. Immediately add to 60 ml of 2% PVA solution and homogenize at 2300 rpm for 1 min
5. Add to 80 ml of 1% PVA solution and stir at 600 rpm for 3 h
6. Wash 4 times (each wash: centrifuge 5-10 min at 1000 rpm, decant, resuspend in DI water)
7. Freeze under liquid N2 and place on lyophilizer until all water is gone
1. Add microspheres (10 mg microspheres/100 ul gel) just prior to use and gently mix to suspend homogeneously.

With `Brc1c(NC2=NCCN2)ccc2nccnc12` [Brimonidine, brimonidine] the “therapeutic levels (theoretical brimonidine absorbed)” value [1] was 0.53 to 3.7 µg/day.
For `O=C([O-])CN(CCN(CC(=O)[O-])CC(=O)O)CCN(CC(=O)[O-])CC(=O)O.[Gd+3]` [Gd-DTPA], the ocular half-life [2] is listed as 28.08 min.
For `O=C([O-])CN1CCN(CC(=O)[O-])CCN(CC(=O)O)CCN(CC(=O)[O-])CC1.[Gd+3]` [Soluble Gd-DOTA, gadolinium-tetraazocyclododecanetetraacetic acid], the “signal intensity relative to muscle, anterior chamber” value [3] was 59% and the “signal intensity relative to muscle, vitreous” value [3] was 56%.
With `CN[C@H](CC(C)C)C(=O)N[C@H]1C(=O)N[C@@H](CC(N)=O)C(=O)N[C@H]2C(=O)N[C@H]3C(=O)N[C@H](C(=O)N[C@H](C(=O)O)c4cc(O)cc(O)c4-c4cc3ccc4O)[C@H](O)c3ccc(c(Cl)c3)Oc3cc2cc(c3O[C@@H]2O[C@H](CO)[C@@H](O)[C@H](O)[C@H]2O[C@H]2C[C@](C)(N)[C@H](O)[C@H](C)O2)Oc2ccc(cc2Cl)[C@H]1O` [vancomycin] the “loading and release with microparticles embedded within the gel” value [4] was “confirmed”.
In the case of Brimonidine tartrate [BT], the ocular half-life [2] is given as 28.2 min.
For “NGF: nerve growth factor, released from NGF-loaded PLGA microspheres”, the “duration of NGF release” value [5] was “approximately one week”.
